Assays:
Assay type in all cases: biochemical
[1] = molecular target: p110β/p85α (Homo sapiens, UniProt P42338); assay: Transcreener KINASE Assay, kinase inhibition of p110β/p85α; conditions: for PI3Kβ IH % @ 1 uM: 1 uM test compound; for IC50: read-out: PI3Kβ IC50
In short: (§1)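 ADP formation read by far-red competitive FP immunoassay (60 min RT detection step) after an 80 min RT kinase reaction; substrate added as a 30 uM PIP2/10 uM ATP solution (not final).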

[2] = molecular target: p110α/p85α (Homo sapiens, UniProt P42336); assay: Transcreener KINASE Assay, kinase inhibition of p110α/p85α; conditions: read-out: PI3Kα IC50
Experimental: PI3K kinases including p110α/p85α, p110δ/p85α and p110γ are purchased from Invitrogen, and p110β/p85α is from Millipore.
Primary screening data and IC50 values are measured using Transcreener™ KINASE Assay (Bellbrook, Catalog #3003-10K). […] It is a universal, homogenous, high throughput screening (HTS) technology using a far-red, competitive fluorescence polarization immunoassay based on the detection of ADP to monitor the activity of enzymes that catalyze group transfer reactions. Briefly, the Transcreener KINASE Assay is designed as a simple two-part, endpoint assay.
In the first step, the 25 ul kinase reaction is performed by preparing a reaction mixture containing 5 ul test compound (2% DMSO final concentration), 10 ul kinase, buffer (50 mM HEPES, 100 mM NaCl, 1 mM EGTA, 0.03% CHAPS, 3 mM MgCl2, and freshly supplemented 1 mM DTT), and 10 ul 30 uM PIP2/10 uM ATP. The plate is sealed and incubated for 80 min at room temperature. Next, 25 ul ADP detection mix is added per well. The plate is sealed again and incubated for 60 min at room temperature, and then measure fluorescence polarization by Tecan Infinite F500 Reader.
Data is analyzed and IC50s are generated using the add-in software for Microsoft Excel, Xlfit™ (version 2.0). IH %=(ADP amount under 2% DMSO-ADP amount under test compound)/ADP amount under 2% DMSO.

[3] = molecular target: p110δ/p85α (Homo sapiens, UniProt O00329); assay: Transcreener KINASE Assay, kinase inhibition of p110δ/p85α; conditions: for PI3Kδ IH % @ 1 uM: 1 uM test compound; for IC50: read-out: PI3Kδ IC50
In short: as §1

[4] = molecular target: p110γ (Homo sapiens, UniProt P48736); assay: Transcreener KINASE Assay, kinase inhibition of p110γ; conditions: for PI3Kγ IH % @ 1 uM: 1 uM test compound; for IC50: read-out: PI3Kγ IC50
In short: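 Recombinant PI3K isoform complexes were tested in a two-step endpoint ADP-detection assay. Kinase reaction ran 80 min at room temperature, followed by 60 min with ADP detection mix. Far-red competitive fluorescence polarization immunoassay read-out; IC50s fitted from the FP data.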

Sequence of p110β/p85α (P42338 whole entry): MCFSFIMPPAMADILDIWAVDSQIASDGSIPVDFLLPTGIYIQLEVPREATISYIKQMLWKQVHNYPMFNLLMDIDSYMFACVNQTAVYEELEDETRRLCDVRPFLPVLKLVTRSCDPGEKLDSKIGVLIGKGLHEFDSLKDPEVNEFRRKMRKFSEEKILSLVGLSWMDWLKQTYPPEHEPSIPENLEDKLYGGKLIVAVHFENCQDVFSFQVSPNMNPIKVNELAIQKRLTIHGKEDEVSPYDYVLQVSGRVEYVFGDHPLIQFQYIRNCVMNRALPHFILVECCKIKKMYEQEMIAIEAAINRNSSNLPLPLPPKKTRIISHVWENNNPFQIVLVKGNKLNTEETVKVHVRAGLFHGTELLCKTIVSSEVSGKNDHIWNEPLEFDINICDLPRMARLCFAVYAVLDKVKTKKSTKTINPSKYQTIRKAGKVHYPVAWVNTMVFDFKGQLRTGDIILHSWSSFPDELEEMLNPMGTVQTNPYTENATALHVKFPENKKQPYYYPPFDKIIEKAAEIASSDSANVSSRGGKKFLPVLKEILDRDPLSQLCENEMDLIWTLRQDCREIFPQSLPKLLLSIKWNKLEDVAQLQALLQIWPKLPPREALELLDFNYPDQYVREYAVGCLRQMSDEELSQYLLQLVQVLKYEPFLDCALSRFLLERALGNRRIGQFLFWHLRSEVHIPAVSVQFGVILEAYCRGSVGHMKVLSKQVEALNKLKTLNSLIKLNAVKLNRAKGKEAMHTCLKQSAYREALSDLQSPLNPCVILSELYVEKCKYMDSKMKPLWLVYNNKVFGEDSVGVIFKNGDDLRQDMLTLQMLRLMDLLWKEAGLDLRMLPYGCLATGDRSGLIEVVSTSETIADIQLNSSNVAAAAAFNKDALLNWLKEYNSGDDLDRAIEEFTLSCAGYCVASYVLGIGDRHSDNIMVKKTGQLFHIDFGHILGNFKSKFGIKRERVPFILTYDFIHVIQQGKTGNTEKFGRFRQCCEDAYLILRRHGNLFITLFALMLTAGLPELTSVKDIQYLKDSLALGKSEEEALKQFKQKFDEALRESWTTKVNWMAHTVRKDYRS
Sequence of p110β/p85α (P27986 2-724 partner): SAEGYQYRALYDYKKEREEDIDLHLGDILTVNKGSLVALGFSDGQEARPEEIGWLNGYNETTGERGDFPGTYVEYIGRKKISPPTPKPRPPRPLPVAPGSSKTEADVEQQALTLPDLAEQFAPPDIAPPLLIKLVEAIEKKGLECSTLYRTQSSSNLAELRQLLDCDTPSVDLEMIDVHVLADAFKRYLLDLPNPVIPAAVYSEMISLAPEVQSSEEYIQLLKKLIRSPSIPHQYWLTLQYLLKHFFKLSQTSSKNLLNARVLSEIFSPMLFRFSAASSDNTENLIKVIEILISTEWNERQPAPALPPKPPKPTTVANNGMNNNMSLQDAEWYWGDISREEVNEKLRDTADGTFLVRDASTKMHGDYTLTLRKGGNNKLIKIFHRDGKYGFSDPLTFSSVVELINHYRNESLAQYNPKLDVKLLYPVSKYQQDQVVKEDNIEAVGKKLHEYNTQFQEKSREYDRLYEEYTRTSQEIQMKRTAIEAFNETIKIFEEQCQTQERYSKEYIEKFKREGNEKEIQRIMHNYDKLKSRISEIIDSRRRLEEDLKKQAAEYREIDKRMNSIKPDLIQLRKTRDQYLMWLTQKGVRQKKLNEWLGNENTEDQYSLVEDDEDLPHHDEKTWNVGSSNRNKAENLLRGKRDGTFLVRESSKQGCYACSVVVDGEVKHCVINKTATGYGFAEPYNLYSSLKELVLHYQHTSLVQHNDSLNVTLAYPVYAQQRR
Sequence of p110γ (P48736 whole entry, canonical isoform): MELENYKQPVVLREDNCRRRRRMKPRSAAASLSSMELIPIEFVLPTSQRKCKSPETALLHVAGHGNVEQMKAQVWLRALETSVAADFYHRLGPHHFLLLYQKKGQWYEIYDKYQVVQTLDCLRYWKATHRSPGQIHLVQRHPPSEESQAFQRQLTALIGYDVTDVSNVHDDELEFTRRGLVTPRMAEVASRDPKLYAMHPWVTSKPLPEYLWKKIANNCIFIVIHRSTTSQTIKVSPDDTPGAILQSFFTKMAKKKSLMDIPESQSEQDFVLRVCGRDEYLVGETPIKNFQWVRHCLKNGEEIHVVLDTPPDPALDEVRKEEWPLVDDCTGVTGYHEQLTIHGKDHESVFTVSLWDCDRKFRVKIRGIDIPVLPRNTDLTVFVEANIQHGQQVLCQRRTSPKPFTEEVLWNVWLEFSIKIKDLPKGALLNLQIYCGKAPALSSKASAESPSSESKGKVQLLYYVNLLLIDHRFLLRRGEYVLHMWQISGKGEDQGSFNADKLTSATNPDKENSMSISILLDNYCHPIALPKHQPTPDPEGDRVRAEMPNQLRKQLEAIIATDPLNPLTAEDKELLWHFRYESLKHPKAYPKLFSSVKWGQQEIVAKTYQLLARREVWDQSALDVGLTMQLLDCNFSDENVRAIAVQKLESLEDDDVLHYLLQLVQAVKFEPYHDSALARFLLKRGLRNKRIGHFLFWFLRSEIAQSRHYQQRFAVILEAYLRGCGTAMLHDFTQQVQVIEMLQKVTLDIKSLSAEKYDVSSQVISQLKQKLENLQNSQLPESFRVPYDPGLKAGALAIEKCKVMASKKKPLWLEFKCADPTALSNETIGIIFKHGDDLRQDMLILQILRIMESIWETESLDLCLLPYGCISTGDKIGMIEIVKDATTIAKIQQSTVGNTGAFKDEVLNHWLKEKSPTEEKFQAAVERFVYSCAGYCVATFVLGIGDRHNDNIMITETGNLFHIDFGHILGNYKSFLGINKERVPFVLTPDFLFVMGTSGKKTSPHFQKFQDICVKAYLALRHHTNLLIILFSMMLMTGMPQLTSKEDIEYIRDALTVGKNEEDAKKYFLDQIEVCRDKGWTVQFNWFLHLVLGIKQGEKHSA
Sequence of p110δ/p85α (O00329 whole entry): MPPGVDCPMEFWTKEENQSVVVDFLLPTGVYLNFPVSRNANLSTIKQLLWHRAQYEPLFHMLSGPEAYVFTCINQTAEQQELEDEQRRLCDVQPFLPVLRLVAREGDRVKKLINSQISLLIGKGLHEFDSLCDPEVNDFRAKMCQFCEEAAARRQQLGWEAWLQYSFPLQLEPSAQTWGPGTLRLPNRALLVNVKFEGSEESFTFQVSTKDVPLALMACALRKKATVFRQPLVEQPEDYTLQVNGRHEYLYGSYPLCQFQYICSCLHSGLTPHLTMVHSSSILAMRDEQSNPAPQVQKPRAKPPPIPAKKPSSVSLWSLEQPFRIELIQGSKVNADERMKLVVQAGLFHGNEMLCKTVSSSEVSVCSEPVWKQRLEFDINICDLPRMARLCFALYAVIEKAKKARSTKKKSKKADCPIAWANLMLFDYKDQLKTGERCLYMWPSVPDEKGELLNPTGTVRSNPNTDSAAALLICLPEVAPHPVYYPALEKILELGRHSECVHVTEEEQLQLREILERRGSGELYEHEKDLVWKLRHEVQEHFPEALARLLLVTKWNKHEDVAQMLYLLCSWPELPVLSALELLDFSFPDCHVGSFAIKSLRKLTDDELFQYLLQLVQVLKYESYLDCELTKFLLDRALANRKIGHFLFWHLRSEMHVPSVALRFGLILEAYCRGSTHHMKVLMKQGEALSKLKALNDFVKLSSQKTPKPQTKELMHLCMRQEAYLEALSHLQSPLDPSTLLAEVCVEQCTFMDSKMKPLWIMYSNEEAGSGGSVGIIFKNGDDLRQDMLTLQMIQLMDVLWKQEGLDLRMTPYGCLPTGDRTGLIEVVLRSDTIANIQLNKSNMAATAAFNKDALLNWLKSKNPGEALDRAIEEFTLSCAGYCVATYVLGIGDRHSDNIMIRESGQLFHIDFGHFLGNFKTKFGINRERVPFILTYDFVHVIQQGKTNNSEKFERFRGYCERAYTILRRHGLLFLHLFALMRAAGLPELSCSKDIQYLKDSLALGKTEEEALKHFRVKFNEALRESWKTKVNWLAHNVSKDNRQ
Sequence of p110δ/p85α (P27986 whole entry partner): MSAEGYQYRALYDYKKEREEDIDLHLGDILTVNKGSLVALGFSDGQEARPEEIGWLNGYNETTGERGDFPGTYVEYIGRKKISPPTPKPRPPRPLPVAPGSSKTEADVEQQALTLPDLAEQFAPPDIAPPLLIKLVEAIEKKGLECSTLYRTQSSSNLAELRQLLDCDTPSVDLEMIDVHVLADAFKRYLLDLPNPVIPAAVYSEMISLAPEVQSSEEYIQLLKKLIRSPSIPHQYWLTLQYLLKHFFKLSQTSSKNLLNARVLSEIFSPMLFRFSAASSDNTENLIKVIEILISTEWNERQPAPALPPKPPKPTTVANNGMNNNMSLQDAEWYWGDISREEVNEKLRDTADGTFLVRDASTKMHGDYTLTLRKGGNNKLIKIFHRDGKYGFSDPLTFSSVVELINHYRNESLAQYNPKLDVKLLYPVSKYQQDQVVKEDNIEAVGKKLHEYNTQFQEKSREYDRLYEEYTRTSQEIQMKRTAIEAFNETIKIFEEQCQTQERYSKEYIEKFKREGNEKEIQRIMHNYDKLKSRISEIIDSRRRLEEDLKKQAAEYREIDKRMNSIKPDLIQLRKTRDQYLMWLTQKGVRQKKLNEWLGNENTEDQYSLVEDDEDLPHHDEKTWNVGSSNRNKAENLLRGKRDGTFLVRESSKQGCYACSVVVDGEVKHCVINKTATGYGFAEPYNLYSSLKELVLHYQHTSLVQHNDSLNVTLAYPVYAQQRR

Structure (SMILES)	PI3Kβ IH % @ 1 uM [1]	IC50 [1]	IC50 [2]	PI3Kδ IH % @ 1 uM [3]	IC50 [3]	PI3Kγ IH % @ 1 uM [4]	IC50 [4]
CC(=O)c1cnc(N)nc1N1CC[C@H]1c1nn2ccc(Cl)c2c(=O)n1-c1ccccc1 [Compound 299]	38.6%	644 nM	2940 nM	99.4%	6 nM		
C[C@H]1CN(c2nc(N)ncc2C#N)[C@@H]1c1nn2ccc(Cl)c2c(=O)n1-c1ccccn1 [Compound 477]	31.7%			>100%	58 nM	76.1%	351 nM
Cc1nc(N)nc(N2C[C@H](C)[C@H]2c2nn3ccc(Cl)c3c(=O)n2-c2ccccn2)c1C#N [Compound 478]	96.4%	32 nM		>100%	1 nM	>100%	3 nM
CC(=O)c1cnc(N)nc1N1CC[C@H]1c1nn2ccc(Cl)c2c(=O)n1-c1cccc(C)n1 [Compound 479]	20.1%			91.6%	10 nM	94.7%	120 nM
N#Cc1c(N)nc(N)nc1N1CCC1c1nn2ccc(Cl)c2c(=O)n1-c1ccccc1 (centres unmarked) [Compound 482]	91.9%	266 nM		>100%	1 nM	>100%	7 nM
CC(=O)c1cnc(N)nc1N1CC(C)(C)[C@H]1c1nn2ccc(Cl)c2c(=O)n1-c1ccccc1 [Compound 485, (S)-2-(1-(5-acetyl-2-aminopyrimidin-4-yl)-3,3-dimethylazetidin-2-yl)-5-chloro-3-phenylpyrrolo[2,1-f][1,2,4]triazin-4(3H)-one]	−2.1%			>100%	96 nM	45.2%	
N#Cc1c[nH]c2ncnc(N3CC[C@H]3c3nn4ccc(C(F)(F)F)c4c(=O)n3-c3ccccc3)c12 [Compound 488]	29.1%			95.9%	18 nM	87.3%	63 nM
C[C@H]1CN(c2nc(N)ncc2C#N)[C@@H]1c1nn2ccc(C(F)(F)F)c2c(=O)n1-c1ccccc1 [Compound 490]	33.4%			96.6%	54 nM	>100%	15 nM
Cc1nc(N)nc(N2CC[C@H]2c2nn3ccc(C#N)c3c(=O)n2-c2ccccc2)c1C#N [Compound 497, (S)-2-(1-(2-amino-5-cyano-6-methylpyrimidin-4-yl)azetidin-2-yl)-4-oxo-3-phenyl-3,4-dihydropyrrolo[2,1-f][1,2,4]triazine-5-carbonitrile]	67.6%			>100%	6 nM	91.1%	11 nM
Cc1nc(N)nc(N2C[C@H](C)[C@H]2c2nn3ccc(C#N)c3c(=O)n2-c2ccccc2)c1C#N [Compound 499]	86.1%	84 nM		>100%	2 nM	96.0%	5 nM
CC(=O)c1cnc(N)nc1N1C[C@H](C)[C@H]1c1nn2ccc(C#N)c2c(=O)n1-c1ccccc1 [Compound 500]	71.5%	674 nM		95.4%	6 nM	98.7%	7 nM
C[C@H]1CN(c2nc(N)ncc2C#N)[C@@H]1c1nn2ccc(C#N)c2c(=O)n1-c1ccccc1 [Compound 501]	24.0%			91.8%	78 nM	>100%	
Cc1nc(N)nc(N2CC[C@H]2c2nn3c(C)cc(Cl)c3c(=O)n2-c2ccccc2)c1C#N [Compound 502]	33.6%			66.2%		66.4%	
CC(=O)c1cnc(N)nc1N1CC[C@H]1c1nn2c(C)cc(Cl)c2c(=O)n1-c1ccccc1 [Compound 503]	6.2%			49.2%		63.0%	
C[C@H]1CN(c2nc(N)nc(N)c2C#N)C1c1nn2ccc(Cl)c2c(=O)n1-c1cccc(F)c1 (some centres unmarked) [Compound 504]	75.6%	121 nM		>100%	2 nM	>100%	2 nM

— patent US20150307520A1, “NOVEL HETEROARYL AND HETEROCYCLE COMPOUNDS, COMPOSITIONS AND METHODS THEREOF” (HUTCHISON MEDIPHARMA LIMITED, priority 2012, published 2015)
